Source: article PMC4207771, “Identification and Characterization of Novel Renal Sensory Receptors” (PLoS ONE, 2014)

target: T1, Olfr691 (Mus musculus, UniProt Q8VGW5); test: dual-luciferase (cAMP/CREB reporter) ligand screen, Olfr691 in HEK293T cells; type: cell-based; details: not given
T1 construct: Lucy (N); expressed in transfected cells; host or cells: HEK293T, co-transfected with RTP1S
T1 sequence (Q8VGW5 1-322): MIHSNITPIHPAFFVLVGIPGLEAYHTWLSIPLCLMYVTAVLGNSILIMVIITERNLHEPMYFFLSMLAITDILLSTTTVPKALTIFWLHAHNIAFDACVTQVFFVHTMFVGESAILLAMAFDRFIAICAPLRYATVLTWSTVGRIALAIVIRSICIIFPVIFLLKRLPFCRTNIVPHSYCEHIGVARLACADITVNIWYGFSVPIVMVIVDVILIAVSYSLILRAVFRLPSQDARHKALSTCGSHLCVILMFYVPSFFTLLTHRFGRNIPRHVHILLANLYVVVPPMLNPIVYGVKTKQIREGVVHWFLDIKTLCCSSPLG

| SMILES | Olfr691 response in dual-luciferase assay |
| --- | --- |
| [Na+].[Na+].[S-2] [Sodium Sulfide] | - |

same assay, conditions: 0.5 mM ligand; normalized to the response of Olfr691 to the strongest ligand, 4-pentenoate

| SMILES | Relative response at 0.5mM |
| --- | --- |
| CCC(=O)O [propionate] | 42 ± 3.1 |

same assay, conditions: HEK-293T, 4 h; 0.5 mM ligand; normalized to the response of Olfr691 to the strongest ligand, 4-pentenoate

| SMILES | Relative response (% of 4-pentenoate response) at 500 µM [%] |
| --- | --- |
| CCCCCCC(=O)O [heptanoate] | 41 ± 2.1 |
| C/C=C/C(=O)O [crotonic acid] | 39 ± 3 |
| CC(C)CCC(=O)O [isocaproate] | 37 ± 2.7 |
| CC(C)C(=O)O [isobutyrate] | 97 ± 10.8 |
| CCCC(=O)O [butyrate] | 55 ± 2.5 |

same assay, conditions: Olfr691 co-expressed with RTP1S in HEK293T cells; 10 µM to 7.5 mM

| SMILES | EC50 [mM] |
| --- | --- |
| CC(C)C(=O)O [isobutyrate] | 1.13 |

same assay, conditions: chemicals tested individually, screened at 500uM (* also at 100uM)

| SMILES | Olfr691 response in dual-luciferase assay |
| --- | --- |
| CCCCCOC(=O)CCCCC [Amylhexanoate] | - |
| CCCCCCC(=O)O [heptanoate] | + |
| O=C(O)C(=O)O [Oxalate] | - |
| O=C1CCCCCCCCCCCCCCO1 [omega-pentadecalactone] | - |
| Cc1ccco1 [2-methylfuran] | - |
| CCCCC/C=C/CO [trans-2-octen-1-ol] | - |
| C=CC(=O)CCCCC [1-Octen-3-one] | - |
| C=CC(C)(O)CCC=C(C)C (centres unmarked) [linalool] | - |
| CCCCCCCO [1-Heptanol] | - |
| C/C=C/C(=O)O [crotonic acid] | + |
| C=C(C)C1CC=C(C)CC1 (single isomer, unassigned; (+)) [(+)-Limonene] | - |
| O=c1[nH]c(=O)c2[nH]c(=O)[nH]c2[nH]1 [Uric acid] | - |
| CC12CCC(CC1=O)C2(C)C (centres unmarked) [Camphor] | - |
| CC(C)CCC(=O)O [isocaproate] | + |
| SCCS [1,2-ethanedithiol] | - |
| O=C1CCCCCCCCCCCCCCCO1 [16-hexadecanolide] | - |
| C[C@H](CCC(=O)O)[C@H]1CC[C@H]2[C@@H]3CC[C@@H]4C[C@H](O)CC[C@]4(C)[C@H]3C[C@H](O)[C@]12C [Deoxyxholic acid] | - |
| OC1CCCCCC1 [cycloheptanol] | - |
| CC(=O)C=O [Pyruvaldehyde] | - |
| O=C1CCCCC1 [cyclohexanone] | - |
| CC(C)C(=O)O [isobutyrate] | + |
| CCCC(=O)O [butyrate] | + |
| CCC(=O)O [propionate] | + |

same assay, conditions: luciferase assay, co-expressed with RTP1S

| SMILES | Olfr691 response (in words) |
| --- | --- |
| CCC(=O)O [propionate] | responds |

system: Olfr545; test: dual-luciferase (cAMP/CREB reporter) ligand screen, Olfr545 in HEK293T cells; type: cell-based, mouse; parameters: key to Olfr545 response in dual-luciferase assay: ‘+’ or ‘–‘ in each column indicates if the olfactory receptor responded or had no effect to that specific chemical; -: ‘+’ or ‘–‘ in each column indicates if the olfactory receptor responded or had no effect to that specific chemical; details: not given

| SMILES | Olfr545 response in dual-luciferase assay |
| --- | --- |
| [Na+].[Na+].[S-2] [Sodium Sulfide] | - |

same assay, conditions: chemicals tested individually, screened at 500uM (* also at 100uM)

| SMILES | Olfr545 response in dual-luciferase assay |
| --- | --- |
| CCCCCOC(=O)CCCCC [Amylhexanoate] | - |
| CCCCCCC(=O)O [heptanoate] | - |
| O=C(O)C(=O)O [Oxalate] | - |
| O=C1CCCCCCCCCCCCCCO1 [omega-pentadecalactone] | - |
| Cc1ccco1 [2-methylfuran] | - |
| CCCCC/C=C/CO [trans-2-octen-1-ol] | - |
| C=CC(=O)CCCCC [1-Octen-3-one] | - |
| C=CC(C)(O)CCC=C(C)C (centres unmarked) [linalool] | - |
| CCCCCCCO [1-Heptanol] | - |
| C/C=C/C(=O)O [crotonic acid] | - |
| C=C(C)C1CC=C(C)CC1 (single isomer, unassigned; (+)) [(+)-Limonene] | - |
| O=c1[nH]c(=O)c2[nH]c(=O)[nH]c2[nH]1 [Uric acid] | - |
| CC12CCC(CC1=O)C2(C)C (centres unmarked) [Camphor] | - |
| CC(C)CCC(=O)O [isocaproate] | - |
| SCCS [1,2-ethanedithiol] | - |
| O=C1CCCCCCCCCCCCCCCO1 [16-hexadecanolide] | - |
| C[C@H](CCC(=O)O)[C@H]1CC[C@H]2[C@@H]3CC[C@@H]4C[C@H](O)CC[C@]4(C)[C@H]3C[C@H](O)[C@]12C [Deoxyxholic acid] | - |
| OC1CCCCCC1 [cycloheptanol] | - |
| CC(=O)C=O [Pyruvaldehyde] | - |
| O=C1CCCCC1 [cyclohexanone] | - |
| CC(C)C(=O)O [isobutyrate] | - |
| CCCC(=O)O [butyrate] | - |
| CCC(=O)O [propionate] | - |

system: Olfr99; test: dual-luciferase (cAMP/CREB reporter) ligand screen, Olfr99 in HEK293T cells; type: cell-based, mouse; parameters: key: ‘+’ or ‘–‘ in each column indicates if the olfactory receptor responded or had no effect to that specific chemical; -: ‘+’ or ‘–‘ in each column indicates if the olfactory receptor responded or had no effect to that specific chemical; details: not given

| SMILES | Olfr99 response in dual-luciferase assay |
| --- | --- |
| [Na+].[Na+].[S-2] [Sodium Sulfide] | - |

same assay, conditions: chemicals tested individually, screened at 500uM (* also at 100uM)

| SMILES | Olfr99 response in dual-luciferase assay |
| --- | --- |
| CCCCCOC(=O)CCCCC [Amylhexanoate] | - |
| CCCCCCC(=O)O [heptanoate] | - |
| O=C(O)C(=O)O [Oxalate] | - |
| O=C1CCCCCCCCCCCCCCO1 [omega-pentadecalactone] | - |
| Cc1ccco1 [2-methylfuran] | - |
| CCCCC/C=C/CO [trans-2-octen-1-ol] | - |
| C=CC(=O)CCCCC [1-Octen-3-one] | - |
| C=CC(C)(O)CCC=C(C)C (centres unmarked) [linalool] | - |
| CCCCCCCO [1-Heptanol] | - |
| C/C=C/C(=O)O [crotonic acid] | - |
| C=C(C)C1CC=C(C)CC1 (single isomer, unassigned; (+)) [(+)-Limonene] | - |
| O=c1[nH]c(=O)c2[nH]c(=O)[nH]c2[nH]1 [Uric acid] | - |
| CC12CCC(CC1=O)C2(C)C (centres unmarked) [Camphor] | - |
| CC(C)CCC(=O)O [isocaproate] | - |
| SCCS [1,2-ethanedithiol] | - |
| O=C1CCCCCCCCCCCCCCCO1 [16-hexadecanolide] | - |
| C[C@H](CCC(=O)O)[C@H]1CC[C@H]2[C@@H]3CC[C@@H]4C[C@H](O)CC[C@]4(C)[C@H]3C[C@H](O)[C@]12C [Deoxyxholic acid] | - |
| OC1CCCCCC1 [cycloheptanol] | - |
| CC(=O)C=O [Pyruvaldehyde] | - |
| O=C1CCCCC1 [cyclohexanone] | - |
| CC(C)C(=O)O [isobutyrate] | - |
| CCCC(=O)O [butyrate] | - |
| CCC(=O)O [propionate] | - |

target: T2, Olfr31 (Mus musculus, UniProt Q3KPA7); test: dual-luciferase (cAMP/CREB reporter) ligand screen, Olfr31 in HEK293T cells; type: cell-based; details: not given
T2 construct: expressed in transfected cells; host or cells: HEK293T, co-transfected with RTP1S
T2 sequence (Q3KPA7 1-317): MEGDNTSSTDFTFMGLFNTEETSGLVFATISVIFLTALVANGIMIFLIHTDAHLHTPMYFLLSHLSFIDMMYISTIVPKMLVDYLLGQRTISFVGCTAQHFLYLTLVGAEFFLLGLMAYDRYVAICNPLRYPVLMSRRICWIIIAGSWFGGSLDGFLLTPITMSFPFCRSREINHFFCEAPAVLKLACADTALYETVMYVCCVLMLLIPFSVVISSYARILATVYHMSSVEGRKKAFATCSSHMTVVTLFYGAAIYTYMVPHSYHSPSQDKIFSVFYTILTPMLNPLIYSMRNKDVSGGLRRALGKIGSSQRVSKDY

| SMILES | Olfr31 response in dual-luciferase assay |
| --- | --- |
| [Na+].[Na+].[S-2] [Sodium Sulfide] | - |

same assay, conditions: chemicals tested individually, screened at 500uM (* also at 100uM)

| SMILES | Olfr31 response in dual-luciferase assay |
| --- | --- |
| CCCCCOC(=O)CCCCC [Amylhexanoate] | - |
| CCCCCCC(=O)O [heptanoate] | - |
| O=C(O)C(=O)O [Oxalate] | - |
| O=C1CCCCCCCCCCCCCCO1 [omega-pentadecalactone] | - |
| Cc1ccco1 [2-methylfuran] | - |
| CCCCC/C=C/CO [trans-2-octen-1-ol] | - |
| C=CC(=O)CCCCC [1-Octen-3-one] | - |
| C=CC(C)(O)CCC=C(C)C (centres unmarked) [linalool] | - |
| CCCCCCCO [1-Heptanol] | - |
| C/C=C/C(=O)O [crotonic acid] | - |
| C=C(C)C1CC=C(C)CC1 (single isomer, unassigned; (+)) [(+)-Limonene] | - |
| O=c1[nH]c(=O)c2[nH]c(=O)[nH]c2[nH]1 [Uric acid] | - |
| CC12CCC(CC1=O)C2(C)C (centres unmarked) [Camphor] | - |
| CC(C)CCC(=O)O [isocaproate] | - |
| SCCS [1,2-ethanedithiol] | - |
| O=C1CCCCCCCCCCCCCCCO1 [16-hexadecanolide] | - |
| C[C@H](CCC(=O)O)[C@H]1CC[C@H]2[C@@H]3CC[C@@H]4C[C@H](O)CC[C@]4(C)[C@H]3C[C@H](O)[C@]12C [Deoxyxholic acid] | - |
| OC1CCCCCC1 [cycloheptanol] | - |
| CC(=O)C=O [Pyruvaldehyde] | - |
| O=C1CCCCC1 [cyclohexanone] | - |
| CC(C)C(=O)O [isobutyrate] | - |
| CCCC(=O)O [butyrate] | - |
| CCC(=O)O [propionate] | - |

system: Olfr693; test: dual-luciferase (cAMP/CREB reporter) ligand screen, Olfr693 in HEK293T cells; type: cell-based, mouse; parameters: key: ‘+’ or ‘–‘ in each column indicates if the olfactory receptor responded or had no effect to that specific chemical; -: ‘+’ or ‘–‘ in each column indicates if the olfactory receptor responded or had no effect to that specific chemical; details: not given

| SMILES | Olfr693 response in dual-luciferase assay |
| --- | --- |
| [Na+].[Na+].[S-2] [Sodium Sulfide] | - |

same assay, conditions: chemicals tested individually, screened at 500uM (* also at 100uM)

| SMILES | Olfr693 response in dual-luciferase assay |
| --- | --- |
| CCCCCOC(=O)CCCCC [Amylhexanoate] | - |
| CCCCCCC(=O)O [heptanoate] | - |
| O=C(O)C(=O)O [Oxalate] | - |
| O=C1CCCCCCCCCCCCCCO1 [omega-pentadecalactone] | - |
| Cc1ccco1 [2-methylfuran] | - |
| CCCCC/C=C/CO [trans-2-octen-1-ol] | - |
| C=CC(=O)CCCCC [1-Octen-3-one] | - |
| C=CC(C)(O)CCC=C(C)C (centres unmarked) [linalool] | - |
| CCCCCCCO [1-Heptanol] | - |
| C/C=C/C(=O)O [crotonic acid] | - |
| C=C(C)C1CC=C(C)CC1 (single isomer, unassigned; (+)) [(+)-Limonene] | - |
| O=c1[nH]c(=O)c2[nH]c(=O)[nH]c2[nH]1 [Uric acid] | - |
| CC12CCC(CC1=O)C2(C)C (centres unmarked) [Camphor] | - |
| CC(C)CCC(=O)O [isocaproate] | - |
| SCCS [1,2-ethanedithiol] | - |
| O=C1CCCCCCCCCCCCCCCO1 [16-hexadecanolide] | - |
| C[C@H](CCC(=O)O)[C@H]1CC[C@H]2[C@@H]3CC[C@@H]4C[C@H](O)CC[C@]4(C)[C@H]3C[C@H](O)[C@]12C [Deoxyxholic acid] | - |
| OC1CCCCCC1 [cycloheptanol] | - |
| CC(=O)C=O [Pyruvaldehyde] | - |
| O=C1CCCCC1 [cyclohexanone] | - |
| CC(C)C(=O)O [isobutyrate] | - |
| CCCC(=O)O [butyrate] | - |
| CCC(=O)O [propionate] | - |
